Measured values taken from PubChem BioAssay (NCI).
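Method: 48-hour compound exposure of cells in 96-well plates, five concentrations, linear interpolation of endpoints. Abbreviation: GI50, concentration required for 50% inhibition of growth. TGI: total growth inhibition.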

Tests used:
Test in all cases: NCI tumour cell line growth inhibition, 48 h
[1] = tested on: SK-MEL-5 melanoma
[2] = tested on: NCI-H460 lung
[3] = tested on: SF-539 CNS
[4] = tested on: HCT-15 colon
[5] = tested on: K-562 leukemia
[6] = tested on: HT29 colon
[7] = tested on: PC-3 prostate
[8] = tested on: LOX IMVI melanoma
[9] = tested on: A549 NSCLC
[10] = tested on: SK-OV-3 ovarian

Structure (SMILES) | GI50 [1] | TGI [1] | GI50 [2] | TGI [2] | GI50 [3] | TGI [3] | GI50 [4] | TGI [4] | GI50 [5] | TGI [5] | GI50 [6] | TGI [6] | GI50 [7] | TGI [7] | GI50 [8] | TGI [8] | GI50 [9] | TGI [9] | GI50 [10] | TGI [10]
COc1ccccc1Nc1cc(O)c2c(=O)cc(-c3ccccc3)oc2c1 | 3 µM | 9.58 µM | 3.37 µM | 12 µM | 2.73 µM | 10.4 µM | 1.65 µM | > 100 µM | 0.59 µM | > 100 µM | 3.64 µM | > 100 µM | 5.13 µM | 41.6 µM | 3.41 µM | > 100 µM | 5.16 µM | > 100 µM | 3.57 µM | 17.9 µM
COc1cc(/C=C/c2cc(/C=C/c3ccc(O)c(OC)c3)n(C(=O)c3ccc(Cl)cc3)n2)ccc1O | 2.27 µM | 11.6 µM | 2.03 µM | 20.4 µM | 1.24 µM | 6.07 µM | 1.54 µM | 26.1 µM | 0.807 µM | 16.4 µM | 3.42 µM | > 100 µM | 2.66 µM | 15.5 µM |  |  | 3.3 µM | 12.8 µM | 1.83 µM | 4.35 µM
CC(C)(C)C(=O)OCOP(=O)(NCc1ccccc1)C1CCCN(O)C1=O (centres undefined) | 1.76 µM | 4.33 µM | 1.75 µM | 15.5 µM | 3.2 µM | 16.5 µM | 2.75 µM | 25.9 µM | 1.13 µM | > 100 µM | 3.35 µM | 61.9 µM | 5.08 µM | > 100 µM | 2.85 µM | 15.8 µM | 2.79 µM | > 100 µM |  | 
O=C(CSc1nc2c(n1Nc1ccccc1)-c1ccccc1SC2)Nc1nc(-c2ccc(Cl)cc2)cs1 | > 100 µM | > 100 µM |  |  | 25.8 µM | > 100 µM | > 100 µM | > 100 µM |  |  | > 100 µM | > 100 µM | > 100 µM | > 100 µM | > 100 µM | > 100 µM |  |  | 11.8 µM | 29.5 µM
O=C(NCCCCN1CCOCC1)c1cc2ccccc2o1 | > 100 µM | > 100 µM | > 100 µM | > 100 µM | > 100 µM | > 100 µM | > 100 µM | > 100 µM | > 100 µM | > 100 µM | > 100 µM | > 100 µM | > 100 µM | > 100 µM | > 100 µM | > 100 µM | > 100 µM | > 100 µM | > 100 µM | > 100 µM
Cc1cnc2n1S(=O)(=O)c1cc(C(=O)Nc3cccc4nsnc34)c(Cl)cc1S2 | 26.4 µM | 98.1 µM | 18 µM | 37.7 µM | 23.4 µM | 50.2 µM | 38.1 µM | > 100 µM | 40.8 µM | > 100 µM | 32.3 µM | 93.8 µM | 20.1 µM | 38.9 µM | 32.9 µM | > 100 µM | 46.9 µM | > 100 µM | > 100 µM | > 100 µM
O=C(O)CSc1n[nH]c(=O)[nH]c1=O |  | > 100 µM |  | > 100 µM |  | > 100 µM |  | > 100 µM |  | > 100 µM |  | > 100 µM |  | > 100 µM |  | > 100 µM |  | > 100 µM |  | > 100 µM
CCc1ccc(Oc2c(-c3ccc(OCc4ccc(Cl)cc4)cc3O)n[nH]c2C(F)(F)F)cc1 | 1.66 µM | 3.03 µM | 2.05 µM | 4.1 µM | 1.96 µM | 4.41 µM | 1.6 µM | 3.21 µM | 2.32 µM | 5.37 µM | 2 µM | 3.95 µM | 1.88 µM | 3.86 µM | 1.63 µM | 3.01 µM | 2.02 µM | 4.22 µM | 2.43 µM | 7.01 µM
O=c1c2c(nc3n1CCS3)[nH]c1cc([N+](=O)[O-])ccc12 |  |  | > 100 µM | > 100 µM | > 100 µM | > 100 µM | > 100 µM | > 100 µM | > 100 µM | > 100 µM | > 100 µM | > 100 µM | > 100 µM | > 100 µM | > 100 µM | > 100 µM | > 100 µM | > 100 µM | > 100 µM | > 100 µM
Oc1ccc(C=Nc2ccccc2O)cc1 |  | 62.7 µM |  | > 100 µM |  | > 100 µM |  | > 100 µM |  | > 100 µM |  | > 100 µM |  | > 100 µM |  | > 100 µM |  | > 100 µM |  | > 100 µM
O=C1NC(=C(Cl)Cl)/C(=N/S(=O)(=O)N2CCCCC2)N1 |  |  | 3.27 µM | 11.2 µM | 2.2 µM | 5.55 µM | 1.82 µM | 3.91 µM |  |  | 1.99 µM | 3.98 µM | 3.05 µM | 10.5 µM | 1.86 µM | 3.58 µM | 6.85 µM | 22.2 µM | 15.4 µM | 28.8 µM
C=C(c1ccc(OC)c(/C=C/C(=O)c2ccc3c(c2)OCO3)c1)c1cc(OC)c(OC)c(OC)c1 | 1.97 µM | 6.71 µM | 2.34 µM | 6.21 µM | 2.36 µM | 7.24 µM |  |  | 0.783 µM | 13.9 µM | 2.98 µM | 10.4 µM | 2.91 µM | > 100 µM | 1.58 µM | 3.52 µM | 3.54 µM | > 100 µM | 5.07 µM | > 100 µM
COc1cccc2c1c1ccc3c(c1n2C)C(=O)C=CC3=O |  | > 100 µM |  | > 100 µM |  | 30.9 µM |  | 31.8 µM |  | > 100 µM |  | 12.6 µM |  |  |  | 32.2 µM |  | > 100 µM |  | > 100 µM
Cc1nc2sccn2c1C(=O)NN |  | > 100 µM |  | > 100 µM |  | > 100 µM |  | > 100 µM |  | > 100 µM |  | > 100 µM |  |  |  | > 100 µM |  | > 100 µM |  | > 100 µM
Cc1nc([N+](=O)[O-])cn1-c1nc2ccccn2c1[N+](=O)[O-] |  | > 100 µM |  | > 100 µM |  | > 100 µM |  | > 100 µM |  | > 100 µM |  | > 100 µM |  | > 100 µM |  |  |  | > 100 µM |  | > 100 µM
